Laboratory results: US20030186946A1, “Suppression of cytotoxic protein conformers” (priority 2002, published 2003)

Tests used:
human amylin [1] = molecular target: T1, human amylin (Homo sapiens, UniProt P10997); settings: 1200 μM compound (20-fold molar excess), 60 μM human amylin, 10 μM thioflavin-T, over 24 h (FIG. 3)
T1 sequence (P10997 34-70 limits assumed): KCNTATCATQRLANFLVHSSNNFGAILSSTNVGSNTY
Description: Thioflavin-T binding fluorescent assays. The effects of various polycyclic compounds on islet amyloid formation were measured by fluorescence spectroscopy, using a SpectraMAX Gemini XS Fluorescence Spectrophotometer (Molecular Devices Corporation, Sunnyvale, Calif.). Excitation and emission maxima were set to 450 nm and 510 nm respectively using a cutoff filter at 495 nm. Thioflavin-T binds to amylin fibrils, but not to monomeric amylin (Goldsbury et al., (1999), J. Mol. Biol., 285:33-39). […] The rate of amylin fibril formation was determined by following thioflavin-T fluorescence in the presence or absence of the potential inhibitory drug. […] Background fluorescence by acridine and acridine orange in the absence of amylin was subtracted from the experimental results. The control preparation contained human amylin and thioflavin-T in the absence of drug. The rate of fluorescence enhancement under these conditions was used to compare amylin fibril formation in the absence and presence of the drug. All other experimental conditions were identical.
Tri-prolyl amylin and rat amylin with thioflavin-T were also used as additional controls.
Each data point represents the mean±s.e.m of three separate reactions.
Effect of chlorpromazine on enhancement of thioflavin-Tfluorescence by human amylin (FIG. 2). Chlorpromazine (700 μM) (π) was incubated in 10 mM tris p H 7.4, with monomeric human amylin (70 μM) in the presence of thioflavin-T (10 μM). The fluorescence of the reaction was monitored over 24 hours as described in the methods. […] Each data point represents the mean±s.e.m of three separate reactions.
Effect of selected polycylic compounds on enhancement of thioflavin-Tfluorescence by human amylin (FIG. 3). Acridine, acridine orange, neutral red and methylene blue are selected examples of fused tricyclic ring compounds. […] Compound structures are shown adjacent to the appropriate graph. […] Fluorescence was monitored over 24 h as described in the Methods. A preparation containing human amylin and thioflavin-T only (▪), was included as a comparison in the absence of drug. […] Each data point represents the mean±s.e.m of three independent experiments.

human amylin [2] = molecular target: T1, human amylin; assay: Radiolabelled precipitation assay of amylin fibril formation; type: biochemical; parameters: Amylin is a 37-residue; C-terminally amidated peptide having a disulfide bridge between the cysteines at residues 2 and 7; purchased Bachem Calif; (Torrance, Calif.); host or cells: chemical synthesis; settings: 200 μM compound
Description: Radiolabelled Precipitation Assays. The precipitation of radiolabelled human and rat amylin fibrils was used as an independent method to monitor assembly of amylin fibrils in the presence or absence of potential inhibitors of amylin fibril formation. […] Incubation mixtures were then centrifuged at either 16,000×g or 100,000×g, for 20 min, and the amount of [^3H]-human amylin remaining in the supernatant after centrifugation was determined (Beckman LSW 3801 β-counter, USA). Results were expressed as percentages of precipitable counts per minute, relative to total radioactivity in the supernatant.
Incorporation of [^3H]-amylin into amylin fibrils was followed for 24 hours. Human amylin fibrils were precipitated by centrifugation at either 16,000×g (FIG. 7A) or at 100,000×g (FIG. 7B). Rat amylin (10 μM) in the presence of [^3H]-rat amylin was used as a non-fibril forming control (♦) (FIG. 7A). The results are shown as the percentage of precipitable radioactive amylin, relative to total radioactivity in the supernatant at each time point. Each data point represents the mean±s.e.m of three separate reactions.
The incorporation of radioactive monomeric amylin into the human amylin fibrils as they form, can be used to measure the rate at which amylin fibrils form in the presence or absence of a potential inhibitory drug. Amylin fibrils can be separated from solution by centrifugation and the amount of radioactive amylin precipitated in the amylin fibril pellet is then used as a measure of the amount of amylin fibrils present at that time.
Thioflavin-T, although not polycyclic, is widely used in fluorescent assays to measure amylin fibril formation. Incorporation of radioactivity into the pellet of an aliquot of the reaction mixture centrifuged at 16,000×g, for 20 minutes was monitored over the time periods indicated. Rat amylin (10 μM) with [^3H]-rat amylin added was used as a non fibril forming control (∘) in each experiment. The results are shown as the percentage of precipitable radioactive amyloid, relative to total radioactivity in the supernatant at each time point. Each data point represents the mean±s.e.m of three separate experiments.

human amylin [3] = molecular target: T1, human amylin; assay: Electron microscopy of human amylin fibrils; type: biochemical; parameters: Amylin is a 37-residue; C-terminally amidated peptide having a disulfide bridge between the cysteines at residues 2 and 7; purchased Bachem Calif; (Torrance, Calif.); host or cells: chemical synthesis; settings: 1200 μM compound, 60 μM human amylin, 10 mM tris pH 7.4, 24 h (FIG. 6)
Description: Electron Microscopy. […] Samples were removed at various time points and prepared for electron microscopy. Aliquots (8 μl) of the amylin fibril preparations were absorbed to glow-discharged carbon-coated collodion film on 200-mesh copper grids for 1 min. Grids were blotted, washed twice in droplets of deionised water and stained with 2% (w/v) uranyl acetate. Grids were examined in a Phillips Technai transmission electron microscope operated at 120 kV.
Samples were removed at various time points and prepared for electron microscopy according to the procedure described in the methods.
Electron Microscopy of human amylin fibrils in the presence and absence of quinacrine (FIG. 5). A 100 fold molar excess of quinacrine was incubated with human amylin. Samples were removed at various time points and prepared for electron microscopy according to the procedure described in the methods.
Electron Microscopy of human amylin fibrils in the presence and absence of selected polycyclic compounds (FIG. 6). […] Samples were removed and prepared for electron microscopy as described in the Methods. All experiments were performed in triplicate and the pictures above are representative of at least 6 photographs taken at each magnification.

Description for RINm5F cells: Cell Culture and Cytotoxicity Assays. RINm5F cells were cultured in RPMI 1640 medium containing 10% fetal bovine serum, 290 μg/mL L-glutamine, 100 IU/mL penicillin and 100 μg/mL streptomycin. Cells were plated at a density of 15×1 cells per well, incubated for 48 h, rinsed with PBS and placed in fresh medium containing Congo red. Freshly prepared human amylin in Milli-Q water, was preincubated with Congo red for 30 min, then added to the cell culture medium to give a final concentration of 30 μM. Cells were treated for 22 h with human amylin in the presence or absence of 100 μM Congo red. Cell viability was determined by double-staining with calcein-AM and ethidium homodimer-1. Green fluorescence of live cells and red fluorescence marking nuclei of dead cells were simultaneously visualized using a Zeiss Axiovert S100 microscope equipped with a Zeiss filter set # 09. Photographs were taken at 400× magnification using a Zeiss AxioCam digital camera.
A. Representative fluorescence micrograph of RINm5F cells treated with 30 μM human amylin for 22 h and stained with calcein-AM and ethidium homodimer-1 to show live cells (green) and dead cells (red). […] B. A representative micrograph of RINm5F cells treated with 30 μM human amylin and 100 μM Congo red stained as above. […] The percentage of live cells was determined for cells treated for 22 h with vehicle; 30 μM human amylin; 30 μM human amylin in the presence of 100 μM Congo red; or 30 μM rat amylin. Experiments were repeated independently 10 times except for human amylin plus Congo red (A+CR) which was repeated five times. Error bars represent the s.e.m of live and dead cell counts over 6-12 fields per condition.

Structure (SMILES) | enhancement of thioflavin-T fluorescence by human amylin (human amylin [1]) | intrinsic cytotoxicity of compound to RINm5F β cells (RINm5F cells) | level of precipitable amyloid (human amylin [2]; 10 μM human amylin, after 72 h) [%] | overall decrease in precipitable amyloid (human amylin [2]; 10 μM human amylin, after 72 h) [%] | morphology of human amylin fibrils (electron microscopy) (human amylin [3]) | effect on precipitable amyloid formation (human amylin [2]; 10 μM human amylin, 16,000×g (FIG. 8))
CN(C)c1ccc2cc3ccc(N(C)C)cc3nc2c1 [acridine orange] | no increase in thioflavin-T enhanced fluorescence | cytotoxic | 50 | 30 |  | 
Cc1cc2nc3ccc(N(C)C)cc3nc2cc1N [neutral red] | no increase in thioflavin-T enhanced fluorescence | cytotoxic |  |  | still formed characteristic amylin fibrils | small but significant reduction
